Earlier results in patent US9457321B2, “Furanone containing polymer compound with bacteria-adhesion properties” (Stellenbosch University, priority 2012, dated 2016).

Tested on: P. aeruginosa, S. aureus, E. coli and Enterococci

For `CC1=C(O)C(=O)C(C)O1` (stereo not shown) [DMHF, 2,5-dimethyl-4-hydroxy-3(2H)-furanone], the antimicrobial efficacy is listed as “exceptional antimicrobial efficacy”.
